Reference: publication PMC3274641 (Bioorganic & medicinal chemistry letters, 2011)
Entries after “also recorded” stand apart in the source; their conditions may differ. Like-named read-outs stand apart in the source and are kept apart here.

Columns and labels:
[1] = molecular target: T1, Hα4β2 nAChRs (Homo sapiens, UniProt P17787+P43681); details: scaffolds; previously reported data; cited from earlier work
[2] = molecular target: T2, Hα3β4 nAChRs (Homo sapiens, UniProt P30926+P32297); details: scaffolds; previously reported data; cited from earlier work
[3] = molecular target: T1, Hα4β2 nAChRs; assay: cell-based; assay type: cell-based; details: for fold more potent than lead molecule KAB-18: Hα4β2 nAChRs
[4] = molecular target: T2, Hα3β4 nAChRs; assay: Inhibition of Hα3β4 nAChRs by NAMs; assay type: cell-based; details: for change in potency on Hα3β4 nAChRs compared to scaffolds (in words): scaffolds KAB-18, KAB-24, COB-4, respectively
[5] = at the 1 year mark; agonist-antagonist therapy in combination with the nicotine patch; cited from earlier work

T1 sequence (P43681 29-627 limits assumed): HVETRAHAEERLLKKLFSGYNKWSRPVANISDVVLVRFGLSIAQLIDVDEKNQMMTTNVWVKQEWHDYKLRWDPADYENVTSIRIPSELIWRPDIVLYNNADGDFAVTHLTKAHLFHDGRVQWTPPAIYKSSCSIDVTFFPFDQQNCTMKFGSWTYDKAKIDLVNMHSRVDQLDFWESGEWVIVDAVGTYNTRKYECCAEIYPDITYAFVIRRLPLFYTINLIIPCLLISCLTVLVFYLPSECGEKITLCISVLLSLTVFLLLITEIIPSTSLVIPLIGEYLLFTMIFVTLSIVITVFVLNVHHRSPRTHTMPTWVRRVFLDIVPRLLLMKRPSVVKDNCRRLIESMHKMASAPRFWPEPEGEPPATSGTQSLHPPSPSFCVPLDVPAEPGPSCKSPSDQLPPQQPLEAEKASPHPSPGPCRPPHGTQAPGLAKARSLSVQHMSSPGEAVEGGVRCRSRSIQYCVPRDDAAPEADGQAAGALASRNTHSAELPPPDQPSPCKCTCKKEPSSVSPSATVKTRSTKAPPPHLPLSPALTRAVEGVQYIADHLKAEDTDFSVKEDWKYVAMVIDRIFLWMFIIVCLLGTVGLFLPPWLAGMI
T1 sequence (P17787 26-502): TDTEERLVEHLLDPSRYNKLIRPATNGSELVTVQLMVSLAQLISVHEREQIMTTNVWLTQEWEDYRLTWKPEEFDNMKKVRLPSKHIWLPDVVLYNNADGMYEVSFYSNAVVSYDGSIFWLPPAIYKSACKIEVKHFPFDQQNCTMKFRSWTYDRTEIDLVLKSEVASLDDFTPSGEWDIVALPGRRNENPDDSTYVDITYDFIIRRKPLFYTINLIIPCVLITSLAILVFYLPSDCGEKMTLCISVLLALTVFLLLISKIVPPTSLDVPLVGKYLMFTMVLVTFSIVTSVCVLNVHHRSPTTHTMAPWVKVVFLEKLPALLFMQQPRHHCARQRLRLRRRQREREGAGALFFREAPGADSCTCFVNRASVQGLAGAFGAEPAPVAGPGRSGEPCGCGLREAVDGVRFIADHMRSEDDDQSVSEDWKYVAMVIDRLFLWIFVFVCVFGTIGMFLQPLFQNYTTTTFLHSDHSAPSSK
T2 sequence (P32297 32-505): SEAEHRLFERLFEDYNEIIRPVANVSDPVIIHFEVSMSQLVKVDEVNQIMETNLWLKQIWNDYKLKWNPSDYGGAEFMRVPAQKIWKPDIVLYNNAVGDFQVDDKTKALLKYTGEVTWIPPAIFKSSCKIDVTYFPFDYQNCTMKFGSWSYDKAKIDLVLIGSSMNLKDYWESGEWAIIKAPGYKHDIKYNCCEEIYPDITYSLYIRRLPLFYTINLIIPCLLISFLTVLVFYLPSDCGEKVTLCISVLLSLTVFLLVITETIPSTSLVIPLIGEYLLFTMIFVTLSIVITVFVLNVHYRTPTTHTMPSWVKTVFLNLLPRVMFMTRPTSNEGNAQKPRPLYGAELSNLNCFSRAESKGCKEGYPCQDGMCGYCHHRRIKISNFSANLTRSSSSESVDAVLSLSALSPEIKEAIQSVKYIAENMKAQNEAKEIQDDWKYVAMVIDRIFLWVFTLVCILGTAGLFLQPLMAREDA
T2 sequence (P30926 22-498): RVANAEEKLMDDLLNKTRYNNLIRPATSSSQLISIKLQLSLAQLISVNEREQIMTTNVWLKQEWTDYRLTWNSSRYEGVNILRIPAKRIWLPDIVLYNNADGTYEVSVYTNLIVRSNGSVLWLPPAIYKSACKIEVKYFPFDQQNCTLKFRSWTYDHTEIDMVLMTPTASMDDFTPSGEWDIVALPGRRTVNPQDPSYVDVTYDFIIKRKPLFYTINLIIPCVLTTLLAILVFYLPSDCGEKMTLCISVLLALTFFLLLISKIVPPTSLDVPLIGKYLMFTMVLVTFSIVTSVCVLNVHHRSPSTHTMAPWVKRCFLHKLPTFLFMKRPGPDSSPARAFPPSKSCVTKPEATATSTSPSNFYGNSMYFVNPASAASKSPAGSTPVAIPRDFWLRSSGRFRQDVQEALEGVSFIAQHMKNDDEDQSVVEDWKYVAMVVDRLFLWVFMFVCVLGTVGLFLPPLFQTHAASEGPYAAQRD

For `O=C(OCC1CCN(CCCc2ccccc2)CC1)c1ccccc1-c1ccccc1` [COB-4], the “nH, Hill coefficient, Hα4β2 nAChRs” value [1] is listed as −0.8 and the “nH, Hill coefficient, Hα3β4 nAChRs” value [2] is listed as −1.0.

In the case of `O=C(NCc1ccccc1)c1ccccc1-c1ccccc1` [COB-170], the “selectivity for Hα4β2 nAChRs over Hα3β4 nAChRs (in words)” value (from here on “selectivity for Hα4β2 nAChRs”) [3] is reported as “nonselective”, the “nH, Hill coefficient, Hα4β2 nAChRs” value ([3]; COB series) is reported as −1.1 and the “fold more potent than lead molecule KAB-18” value [3] is reported as 2 fold. The IC50 [4] was 8.5 µM and the “nH, Hill coefficient, Hα3β4 nAChRs” value ([4]; COB series) was −1.8.

For `O=C(Nc1ccccc1)c1ccccc1-c1ccccc1` [COB-171], the “selectivity for Hα4β2 nAChRs” value [3] was “nonselective”, the “nH, Hill coefficient, Hα4β2 nAChRs” value ([3]; COB series) was −1.3 and the “fold more potent than lead molecule KAB-18” value [3] was 2 fold. The “nH, Hill coefficient, Hα3β4 nAChRs” value ([4]; COB series) was −2.2.

For `O=C(NCc1cccc2ccccc12)c1ccccc1-c1ccccc1` [COB-172], the “selectivity for Hα4β2 nAChRs” value [3] was “maintained selectivity for Hα4β2 nAChRs”, the “nH, Hill coefficient, Hα4β2 nAChRs” value ([3]; COB series) was −0.7 and the “change in potency on Hα4β2 nAChRs (in words)” value ([3]; compared to lead molecule KAB-18) was “no change in potency; also recorded: maintained potency”. For the same compound, the “nH, Hill coefficient, Hα3β4 nAChRs” value ([4]; COB series) was −0.4.

With `O=C(Nc1ccccn1)c1ccccc1-c1ccccc1` [COB-173] the “selectivity for Hα4β2 nAChRs” value [3] was “nonselective”, the “nH, Hill coefficient, Hα4β2 nAChRs” value ([3]; COB series) was −1.0 and the “nH, Hill coefficient, Hα3β4 nAChRs” value ([4]; COB series) was −0.9.

In the case of `O=C(Nc1ccncn1)c1ccccc1-c1ccccc1` [COB-174], the “selectivity for Hα4β2 nAChRs” value [3] is reported as “nonselective”, the “nH, Hill coefficient, Hα4β2 nAChRs” value ([3]; COB series) is reported as −1.5 and the “nH, Hill coefficient, Hα3β4 nAChRs” value ([4]; COB series) is reported as −0.9.

With `O=C(Nc1cccc2ccccc12)c1ccccc1-c1ccccc1` [COB-175] the “nH, Hill coefficient, Hα4β2 nAChRs” value ([3]; COB series) was −0.8, the “fold preference for Hα4β2 nAChRs” value ([3]; over Hα3β4 nAChRs) was 2 fold and the “nH, Hill coefficient, Hα3β4 nAChRs” value ([4]; COB series) was −1.2.

For `O=C(OC1CCCN(CCCc2ccccc2)C1)c1ccccc1-c1ccccc1` (centres unmarked) [DDR-14], the “nH, Hill coefficient, Hα4β2 nAChRs” value [1] is listed as −1.6 and the “nH, Hill coefficient, Hα3β4 nAChRs” value [2] is listed as −1.4.

For `O=C(OCC1CCCN(CCCc2ccccc2)C1)c1ccccc1-c1cccc2ccccc12` (centres unmarked) [FFB-1], the “Obs. [SI] QSSR (Hα4β2/Hα3β4)” value ([3]; training set, selectivity Hα4β2 vs Hα3β4) was 1.29 and the IC50 [4] was 178 µM.

For `O=C(OC1CCCN(C(=O)CCc2ccccc2)C1)c1ccccc1-c1ccccc1` (centres unmarked) [IMB-132], the IC50 [3] was 2.7 µM, the “nH, Hill coefficient, Hα4β2 nAChRs” value ([3]; IMB series) was −1.6 and the “nH, Hill coefficient, Hα3β4 nAChRs” value ([4]; IMB series) was −1.6. The “fold decrease in potency on Hα3β4 nAChRs compared to scaffold molecule” value ([4]; compared to DDR-14) was 2 fold.

With `O=C(OCC1CCCN(C(=O)CCc2ccccc2)C1)c1ccccc1C(F)(F)F` (centres unmarked) [IMB-134] the “nH, Hill coefficient, Hα4β2 nAChRs” value ([3]; IMB series) was −1.5, the “nH, Hill coefficient, Hα3β4 nAChRs” value ([4]; IMB series) was −2.1 and the “change in potency on Hα3β4 nAChRs compared to scaffolds (in words)” value [4] was “no change in potency”.

For `O=C(OCC1CCN(C(=O)CCc2ccccc2)CC1)c1ccccc1-c1ccccc1` [IMB-135], the “nH, Hill coefficient, Hα3β4 nAChRs” value ([4]; IMB series) was −1.5 and the “change in potency on Hα3β4 nAChRs compared to scaffolds (in words)” value [4] was “no change in potency”.

In the case of `O=C(OCC1CCCN(CCCc2ccccc2)C1)c1ccccc1-c1ccccc1` (centres unmarked) [KAB-18], the “nH, Hill coefficient, Hα4β2 nAChRs” value [1] is listed as −1.4.

For `O=C(OCC1CCCN(CCCc2ccccc2)C1)c1ccccc1C(F)(F)F` (centres unmarked) [KAB-24], the “nH, Hill coefficient, Hα4β2 nAChRs” value [1] is listed as −0.8 and the “nH, Hill coefficient, Hα3β4 nAChRs” value [2] is listed as −0.8.

For `CNC1(C)C2CCC(C2)C1(C)C` (centres unmarked) [Mecamylamine], the abstinence [5] is given as 40%.
